Source: patent US11596639B2, “Substituted indole Mcl-1 inhibitors” (Vanderbilt University, priority 2016, dated 2023)
Like-named read-outs stand apart in the source and are kept apart here.

Legend:
[1] = system: H929 human cancer cell lines; experiment: Cellular viability / proliferation (Cell TiterGlo, 72 h); format: cell-based
Method in brief: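 H929 cells plated at 1,000/well in 10% FBS medium received a 2-fold serial compound dilution (top 50 μM, DMSO <1%) 24 h later. After 72 h, viability was read by CellTiter-Glo luminescence. IC50 came from a four-parameter fit.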

Mcl-1 = Mcl-1 (Homo sapiens (Human), UniProt Q07820); experiment: Fluorescence polarization anisotropy (FPA) competition assay, FITC-Bak or FITC-Bim BH3 peptide; format: binding; conditions: read-out: Ki for Inhibition of Mcl-1 by FPA assay
[2] = Homo sapiens, NCI-H929, 72 h, read-out: GI50 on cellular proliferation of H929 human cancer cell lines, H929 cells, 72 h, Cell TiterGlo, 10% FBS

Sequence of Mcl-1 (Q07820 172-327): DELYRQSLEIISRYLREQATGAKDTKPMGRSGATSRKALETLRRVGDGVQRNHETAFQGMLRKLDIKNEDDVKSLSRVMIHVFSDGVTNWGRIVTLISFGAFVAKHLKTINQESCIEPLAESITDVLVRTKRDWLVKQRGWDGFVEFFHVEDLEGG

SMILES | GI50 [1, 2] [nM] | Ki (Mcl-1) [nM] | GI50 ([1]; H929 cells, 72 h, Cell TiterGlo, 10% FBS, read-out: GI50 on cellular proliferation of H929 human cancer cell lines) [nM] | GI50 ([1]; read-out: GI50 on cellular proliferation of H929 human cancer cell lines, H929 cells, 72 h, Cell TiterGlo, 10% FBS) [nM]
Cc1cc(OCCCc2c3n(c4c(-c5c(C)ncnc5C)c(Cl)ccc24)[C@H](C)CN(c2cn(C)c4ccc(C(=O)O)cc24)C3=O)cc(C)c1Cl [Example 177, 3-[(4R)-7-chloro-10-[3-(4-chloro-3,5-dimethyl-phenoxy)propyl]-6-(4,6-dimethylpyrimidin-5-yl)-4-methyl-1-oxo-3,4-dihydropyrazino[1,2-a]indol-2-yl]-1-methyl-indole-5-carboxylic acid] | 270 | < 1 |  | 
Cc1cc(OCCCc2c3n(c4c(-c5c(C)nn(C)c5C)c(Cl)ccc24)[C@H](C)CN(c2cn(C)c4ccc(-c5cn6c(n5)CCC6)cc24)C3=O)cc(C)c1Cl [Example 419, (R)-7-Chloro-10-(3-(4-chloro-3,5-dimethylphenoxy)propyl)-2-(5-(6,7-dihydro-5H-pyrrolo[1,2-a]imidazol-2-yl)-1-methyl-1H-indol-3-yl)-4-methyl-6-(1,3,5-trimethyl-1H-pyrazol-4-yl)-3,4-dihydropyrazino[1,2-a]indol-1(2H)-one] |  | 2.3 | 1100 | 
COc1ccc(N2C[C@@H](C)n3c(c(CCCOc4cc(C)c(Cl)c(C)c4)c4ccc(Cl)c(-c5c(C)nn(C)c5C)c43)C2=O)c2c1cc(C(N)=O)n2Cc1ccccn1 [Example 466, (R)-7-(7-Chloro-10-(3-(4-chloro-3,5-dimethylphenoxy)propyl)-4-methyl-1-oxo-6-(1,3,5-trimethyl-1H-pyrazol-4-yl)-3,4-dihydropyrazino[1,2-a]indol-2(1H)-yl)-4-methoxy-1-(pyridin-2-ylmethyl)-1H-indole-2-carboxamide] | 300 | 1.8 |  | 
Cc1cc(OCCCc2c3n(c4c(-c5c(C)nn(C)c5C)c(Cl)ccc24)[C@H](C)CN(c2cn(C)c4ccc(-c5ccn(C)n5)cc24)C3=O)cc(C)c1Cl [Example 388, (R)-7-Chloro-10-(3-(4-chloro-3,5-dimethylphenoxy)propyl)-4-methyl-2-(1-methyl-5-(1-methyl-1H-pyrazol-3-yl)-1H-indol-3-yl)-6-(1,3,5-trimethyl-1H-pyrazol-4-yl)-3,4-dihydropyrazino[1,2-a]indol-1(2H)-one] | 330 | 1.5 |  | 
Cc1cc(N2C[C@@H](C)n3c(c(CCCOc4cc(C)c(Cl)c(C)c4)c4ccc(Cl)c(-c5c(C)nn(C)c5C)c43)C2=O)c2c(c1)c(C(=O)O)cn2C [Example 162, (R)-7-(7-chloro-10-(3-(4-chloro-3,5-dimethylphenoxy)propyl)-4-methyl-1-oxo-6-(1,3,5-trimethyl-1H-pyrazol-4-yl)-3,4-dihydropyrazino[1,2-a]indol-2(1H)-yl)-1,5-dimethyl-1H-indole-3-carboxylic acid] |  | < 1 |  | 260
Cc1cc(OCCCc2c3n(c4c(-c5c(C)ncnc5C)c(Cl)ccc24)[C@H](C)CN(c2ccc(C(=O)O)c4cccnc24)C3=O)cc(C)c1Cl [Example 224, 8-[(4R)-7-chloro-10-[3-(4-chloro-3,5-dimethyl-phenoxy)propyl]-6-(4,6-dimethylpyrimidin-5-yl)-4-methyl-1-oxo-3,4-dihydropyrazino[1,2-a]indol-2-yl]quinoline-5-carboxylic acid] | 2500 | < 1 |  | 
Cc1cc(OCCCc2c3n(c4c(-c5c(C)nn(C)c5C)c(Cl)ccc24)[C@H](C)CN(c2cn(C)c4ccc(C(=O)N(C)Cc5cccnc5)cc24)C3=O)cc(C)c1Cl [Example 282, 3-[(4R)-7-chloro-10-[3-(4-chloro-3,5-dimethyl-phenoxy)propyl]-4-methyl-1-oxo-6-(1,3,5-trimethylpyrazol-4-yl)-3,4-dihydropyrazino[1,2-a]indol-2-yl]-N,1-dimethyl-N-(3-pyridylmethyl)indole-5-carboxamide] | 2400 | 8.4 |  | 
Cc1cc(OCCCc2c3n(c4c(-c5c(C)nn(C)c5C)c(Cl)ccc24)[C@H](C)CN(c2cccc4cc(C(=O)O)n(CC5CCO5)c24)C3=O)cc(C)c1Cl (stereo partly drawn) [Example 374, 7-((R)-7-Chloro-10-(3-(4-chloro-3,5-dimethylphenoxy)propyl)-4-methyl-1-oxo-6-(1,3,5-trimethyl-1H-pyrazol-4-yl)-3,4-dihydropyrazino[1,2-a]indol-2(1H)-yl)-1-(oxetan-2-ylmethyl)-1H-indole-2-carboxylic acid] | 1500 | 3.7 |  | 
CCn1ncc2cc(C(=O)O)cc(N3CCCn4c(c(CCCOc5cc(C)c(Cl)c(C)c5)c5ccc(Cl)c(-c6c(C)nn(C)c6C)c54)C3=O)c21 [Example 122, 7-(8-Chloro-11-(3-(4-chloro-3,5-dimethylphenoxy)propyl)-1-oxo-7-(1,3,5-trimethyl-1H-pyrazol-4-yl)-4,5-dihydro-1H-[1,4]diazepino[1,2-a]indol-2(3H)-yl)-1-ethyl-1H-indazole-5-carboxylic acid] | 11000 | 2.2 |  | 
Cc1cc(OCCCc2c3n(c4c(-c5c(C)nn(C)c5C)c(Cl)ccc24)[C@H](C)CN(c2cc(C(C)C)cc4cc(C(=O)O)n(C)c24)C3=O)cc(C)c1Cl [Example 356, (R)-7-(7-Chloro-10-(3-(4-chloro-3,5-dimethylphenoxy)propyl)-4-methyl-1-oxo-6-(1,3,5-trimethyl-1H-pyrazol-4-yl)-3,4-dihydropyrazino[1,2-a]indol-2(1H)-yl)-5-isopropyl-1-methyl-1H-indole-2-carboxylic acid] | 650 | 1.9 |  | 
Cc1cccc(OCCCc2c3n(c4c(-c5c(C)nn(C)c5C)c(Cl)ccc24)[C@H](C)CN(c2cn(C)c4ccc(C(=O)O)cc24)C3=O)c1 [Example 405, (R)-3-(7-Chloro-4-methyl-1-oxo-10-(3-(m-tolyloxy)propyl)-6-(1,3,5-trimethyl-1H-pyrazol-4-yl)-3,4-dihydropyrazino[1,2-a]indol-2(1H)-yl)-1-methyl-1H-indole-5-carboxylic acid] | 460 | < 1 |  | 
Cc1cc(OCCCc2c3n(c4c(-c5c(C)nn(C)c5C)c(Cl)ccc24)[C@H](C)CN(c2cn4cccc(C(=O)O)c4n2)C3=O)cc(C)c1Cl [Example 112, (R)-2-(7-chloro-10-(3-(4-chloro-3,5-dimethylphenoxy)propyl)-4-methyl-1-oxo-6-(1,3,5-trimethyl-1H-pyrazol-4-yl)-3,4-dihydropyrazino[1,2-a]indol-2(1H)-yl)imidazo[1,2-a]pyridine-8-carboxylic acid] | 5300 | 3.3 |  | 
Cc1cc(OCCCc2c3n(c4c(-c5c(C)nn(C)c5C)c(Cl)ccc24)[C@H](C)CN(c2cccc4cc(-c5nnco5)n(C)c24)C3=O)cc(C)c1Cl [Example 341, (R)-7-Chloro-10-(3-(4-chloro-3,5-dimethylphenoxy)propyl)-4-methyl-2-(1-methyl-2-(1,3,4-oxadiazol-2-yl)-1H-indol-7-yl)-6-(1,3,5-trimethyl-1H-pyrazol-4-yl)-3,4-dihydropyrazino[1,2-a]indol-1(2H)-one] | 920 | 4.2 |  | 
Cc1cc(OCCCc2c3n(c4c(-c5c(C)nn(C)c5C)c(Cl)ccc24)[C@H](C)CN(c2cc(C(=O)O)c4c(cnn4C)c2)C3=O)cc(C)c1Cl [Example 98, (R)-5-(7-chloro-10-(3-(4-chloro-3,5-dimethylphenoxy)propyl)-4-methyl-1-oxo-6-(1,3,5-trimethyl-1H-pyrazol-4-yl)-3,4-dihydropyrazino[1,2-a]indol-2(1H)-yl)-1-methyl-1H-indazole-7-carboxylic acid] | 6600 | < 1 |  | 
Cc1cc(N2C[C@@H](C)n3c(c(CCCOc4cc(C)c(Cl)c(C)c4)c4ccc(Cl)c(-c5c(C)nn(C)c5C)c43)C2=O)c2c(c1)cc(C(N)=O)n2Cc1ccccn1 [Example 415, (R)-7-(7-Chloro-10-(3-(4-chloro-3,5-dimethylphenoxy)propyl)-4-methyl-1-oxo-6-(1,3,5-trimethyl-1H-pyrazol-4-yl)-3,4-dihydropyrazino[1,2-a]indol-2(1H)-yl)-5-methyl-1-(pyridin-2-ylmethyl)-1H-indole-2-carboxamide] | 510 | 3.4 |  | 
COc1cnc(-c2ccc3c(c2)c(N2C[C@@H](C)n4c(c(CCCOc5cc(C)c(Cl)c(C)c5)c5ccc(Cl)c(-c6c(C)nn(C)c6C)c54)C2=O)cn3C)nc1 [Example 465, (R)-7-Chloro-10-(3-(4-chloro-3,5-dimethylphenoxy)propyl)-2-(5-(5-methoxypyrimidin-2-yl)-1-methyl-1H-indol-3-yl)-4-methyl-6-(1,3,5-trimethyl-1H-pyrazol-4-yl)-3,4-dihydropyrazino[1,2-a]indol-1(2H)-one] | 690 | 1.5 |  | 
Cc1ccc(Cn2c(C(=O)O)cc3cccc(N4C[C@@H](C)n5c(c(CCCOc6cc(C)c(Cl)c(C)c6)c6ccc(Cl)c(-c7c(C)nn(C)c7C)c65)C4=O)c32)nc1 [Example 363, (R)-7-(7-Chloro-10-(3-(4-chloro-3,5-dimethylphenoxy)propyl)-4-methyl-1-oxo-6-(1,3,5-trimethyl-1H-pyrazol-4-yl)-3,4-dihydropyrazino[1,2-a]indol-2(1H)-yl)-1-((5-methylpyridin-2-yl)methyl)-1H-indole-2-carboxylic acid] | 1400 | 1.6 |  | 
Cc1cc(OCCCc2c3n(c4c(-c5c(C)nn(C)c5C)c(Cl)ccc24)[C@H](C)CN(c2cc(C(=O)O)c4cn(CCN5CCOCC5)nc4c2)C3=O)cc(C)c1Cl [Example 57, (R)-6-(7-chloro-10-(3-(4-chloro-3,5-dimethylphenoxy)propyl)-4-methyl-1-oxo-6-(1,3,5-trimethyl-1H-pyrazol-4-yl)-3,4-dihydropyrazino[1,2-a]indol-2(1H)-yl)-2-(2-morpholinoethyl)-2H-indazole-4-carboxylic acid] | 1700 | < 1 |  | 
